Data from publication PMC12040169 (PLOS Biology, 2025).

Assay: in vitro
Conditions: human, hela cells, % viability

Going from `CS(=O)(=O)Nc1cc2ccccc2c(-c2ccc(OCc3ccccc3)c(F)c2)n1` [CBK073785] to `CC(C)C(=O)Nc1cc2ccccc2c(-c2cccnc2)n1` [CBK073786], the viability at 28.5 h, 10 µM rises from 92.7% to 101%.

Going from `CN1C(=O)C(CCNc2ccccc2)S/C1=N/C1CC2C=CC1C2` (stereo not shown) [CBK073812] to `CC(C)[C@H]1SC(NC[C@H](C)c2ccccc2)=NC1=O` [CBK074034], the viability at 28.5 h, 10 µM falls from 114% to 93.6%.

First: c1ccc(C(CC2CCCCC2)NCc2cccnc2)cc1 (stereo not shown) [CBK073816]
Second: FC(F)(F)Oc1ccccc1-c1nnc(NC2CCCCCC2)s1 [CBK074041]
The viability at 28.5 h, 10 µM of the first is higher: 96.3% for the first, 93.8% for the second.

Compared with `COc1ccc(C)cc1S(=O)(=O)Nc1cc(N2CCNC(C(F)(F)F)C2)c2occc2c1` (stereo not shown) [CBK073818C], `COc1cc(C)ccc1S(=O)(=O)Nc1cc(OC2CCNCC2)c2occc2c1` [CBK074192C] is lower in viability at 28.5 h, 10 µM: 104% for the first, 98.6% for the second.

First: COc1cc([C@@]23CC[C@@H](NC(=O)Nc4cc(F)ccc4F)C[C@@H]2N(C)CC3)ccc1OC(F)F [CBK073834]
Second: COc1ccc([C@@]23CC[C@@H](NC(=O)Nc4cc(F)c(C#N)cc4F)C[C@@H]2N(C)CC3)cc1OC [CBK073979T]
The viability at 28.5 h, 10 µM of the first is higher: 106% for the first, 98.2% for the second.

Compared with `Cc1ccc(S(=O)(=O)Nc2nccnc2-c2ccc(Cc3nnn[nH]3)cc2)cc1` [CBK073841], `O=C(O)CCC(=O)NCc1ccc(-c2nccnc2NS(=O)(=O)c2ccc(O)cc2)cc1` [CBK073843] is higher in viability at 28.5 h, 10 µM: 96.9% for the first, 106% for the second.

Going from `O=Cc1ccc(-c2nccnc2NS(=O)(=O)c2ccccc2)cc1` [CBK073845] to `O=S(=O)(Nc1ccc2cc(Br)cnc2n1)c1cccc2nsnc12` [CBK073894], the viability at 28.5 h, 10 µM falls from 97.3% to 82.8%.

Compared with `CCC(CC)C(=O)N1c2ccccc2C(C)(c2ccccc2)CC1(C)C` (stereo not shown) [CBK073862], `CCNC(=O)c1cn(Cc2ccccc2)nn1` [CBK073904] is higher in viability at 28.5 h, 10 µM: 91.5% for the first, 97.9% for the second.

Compared with `Cc1noc(C)c1S(=O)(=O)Nc1ccc2cc(Br)cnc2n1` [CBK073893], `O=C(O)c1cc(S(=O)(=O)Nc2ccc3cc(Br)cnc3n2)c(F)cc1Cl` [CBK073898] is lower in viability at 28.5 h, 10 µM: 93.1% for the first, 92.2% for the second.

Compared with `COc1ccc([C@@]23CC[C@@H](NC(=O)c4ccc(C(F)(F)F)cc4F)C[C@@H]2N(C)CC3)cc1OC` [CBK073976T], `COc1ccc([C@@]23CC[C@@H](NC(=O)c4cc(F)c(Cl)cc4Cl)C[C@@H]2N(C)CC3)cc1OC` [CBK074264T] is lower in viability at 28.5 h, 10 µM: 108% for the first, 97.4% for the second.

Going from `COc1ccc([C@@]23CC[C@@H](NC(=O)c4cccc(Cl)c4)C[C@@H]2N(C)CC3)cc1OC` [CBK073982T] to `COc1ccc([C@@]23CC[C@@H](NC(=O)c4ccc(-c5csnn5)cc4)C[C@@H]2N(C)CC3)cc1OC` [CBK074256T], the viability at 28.5 h, 10 µM rises from 93.5% to 100%.

Going from `O=S(=O)(Nc1cc(OC2CCCNC2)c2occc2c1)c1cc(F)ccc1F` (stereo not shown) [CBK073996C] to `COc1ccc(C(c2ccccc2C)N(C)C(=O)C2CCNCC2)cn1` (stereo not shown) [CBK074124], the viability at 28.5 h, 10 µM falls from 105% to 100%.

First: CS(=O)(=O)Nc1nccnc1N1CCNCC1 [CBK074045T]
Second: CS(=O)(=O)Nc1nccnc1OC1CCNCC1 [CBK074265T]
The viability at 28.5 h, 10 µM of the first is higher: 105% for the first, 90.6% for the second.

Compared with `Cc1cccc(C(=O)N2CCCC(C)C2)c1` (stereo not shown) [CBK074057], `CCC1CCCCN1C(=O)c1cc2ccccc2s1` (stereo not shown) [CBK074211] is lower in viability at 28.5 h, 10 µM: 95.4% for the first, 85.3% for the second.

Going from `COc1ccccc1CCCN1CCC2(C1)c1[nH]c3ccccc3c1CCN2S(C)(=O)=O` (stereo not shown) [CBK074095] to `COc1ccc([C@@]23CCN(C(=O)c4ccc(Cl)c(Cl)c4)C[C@@H]2CN(C)C3)cc1OC` [CBK074308T], the viability at 28.5 h, 10 µM falls from 113% to 99.4%.

Going from `CC1(CC(=O)N2CCCCCC2)SC(NC2CCCCCC2)=NC1=O` (stereo not shown) [CBK074269] to `CCOC(=O)CCNC(C)C1COc2ccccc2O1` (stereo not shown) [CBK074284G], the viability at 28.5 h, 10 µM rises from 96% to 101%.

Going from `COc1ccc(CNC(C)C2COc3ccccc3O2)c(OC)c1` (stereo not shown) [CBK074283G] to `CCOC(=O)c1sc(-c2ccccc2)nc1O` [CBK074298], the viability at 28.5 h, 10 µM rises from 88.8% to 96.9%.
